Laboratory results: US4535081A, “Antiallergic and antiulcer 1-oxo-1H-thiazolo[3,2-a]pyrimidine-2-carboxamides and intermediates therefor” (Pfizer Inc., priority 1983, dated 1985)
Like-named read-outs stand apart in the source and are kept apart here.

Key:
[1] = system: IgE (reaginic antiserum) PCA reaction; assay: Oral activity in PCA test, IgE; assay type: in vivo, rat; details: Rattus norvegicus, IgE, oral
Procedure: (§1) The antiallergy property of the compounds of this invention is evaluated by the passive cutaneous anaphylaxis (PCA) test (Ovary, J. Immun., 81, 355, 1958). In the PCA test, normal animals are injected intradermally (i.d.) with antibodies contained in serum obtained from actively sensitized animals. The animals are then challenged intravenously with antigen mixed with a dye such as Evans' Blue. The increased capillary permeability caused by the antigen-antibody reaction causes the dye to leak from the site of the antibody injection. The test animals are then asphyxiated and the intensity of the reaction determined by measuring the diameter and intensity of the blue coloration on the inner surface of the animals' skin.
The PCA test is a measure of the anti-allergic (especially anti-asthmatic) activity of a compound. Compounds which inhibit a positive PCA test induced by the rat immunochemical counterpart of human immunoglobulin E (IgE), or reagin, are considered to have anti-allergic activity (C. Mota, Ann. N.Y. Acad. Sci., 103, 264 1963). (Reagin is primarily immunoglobulin E [IgE] and is the principal immunoglobulin responsible for allergic asthma, anaphylaxis, hay fever, food sensitivities and certain manifestations of drug sensitivities, although recent evidence ascribes to the IgG class of antibodies a significant role in the mediation of allergic diseases). Such compounds when administered to a sensitized subject, human or animal, prior to the time when the subject comes into contact with antigens or substances to which it is allergic, will prevent the allergic reaction which would otherwise occur. They, therefore, provide a method for the prophylactic treatment of allergy or anaphylactic reactions of a reagin mediated nature.
To put it another way, such compounds block the release of mediators resulting from the antigen-antibody (allergic) reaction as illustrated in the PCA test using rat homocytotropic antibody--a known correlate of human reaginic antibody. Inhibition of reaginic antigen-antibody reactions in rats, the test animal of the PCA test, is regarded as representative of inhibition of human reaginic antigen-antibody reactions which occur during allergic episodes.
The ability of agents to interfere with PCA reactions is measured in male Charles River Wistar rats, 170-210 g. Reaginic antiserum, rich in IgE antibodies, is prepared according to Petillo et al., Int. Arch. Allergy, 44, 309 (1973). Hyperimmune antiserum rich in IgG antibodies to hen egg albumin is prepared according to Orange et al., J. Exptl. Med., 127, 767 (1968). Forty-eight hours prior to antigen challenge, the reaginic antiserum is injected intradermally (i.d.) into the shaved skin of a normal rat's back; 5 hours before challenge the hyperimmune antisera is similarly injected. At a third site 60 mcg. histamine dihydrochloride and 0.5 mcg. serotonin creatinine sulfate are injected i.d. just prior to antigen challenge as a check for antihistaminic, antiserotonin and unspecific types of blockage; the compounds of the instant invention or saline are then administered i.v. and immediately followed by the challenge of 5 mg. egg albumen and 2.5 mg. Evans' Blue dye in saline. In the case of oral administration Evans' Blue dye and egg albumin are given 5 minutes after administration of the drug. Thirty minutes later the animals are asphyxiated using chloroform and the skin of the back removed and reversed for observation. A score is assigned each injection site equal to the product of the diameter of the site in mm. and a grade of 0.1, 0.5, 1, 2, 3 or 4 proportional to intensity of dye coloration. The scores for a given injection site are summed for each group of five animals and compared to the saline treated controls. The difference is expressed as percent blockage due to the compound employed. […]

[2] = system: IgG (hyperimmune antiserum) PCA reaction; assay: Oral activity in PCA test, IgG; assay type: in vivo; details: Rattus norvegicus
Procedure: as §1
The ability of agents to interfere with PCA reactions is measured in male Charles River Wistar rats, 170-210 g. Reaginic antiserum, rich in IgE antibodies, is prepared according to Petillo et al., Int. Arch. Allergy, 44, 309 (1973). Hyperimmune antiserum rich in IgG antibodies to hen egg albumin is prepared according to Orange et al., J. Exptl. Med., 127, 767 (1968). Forty-eight hours prior to antigen challenge, the reaginic antiserum is injected intradermally (i.d.) into the shaved skin of a normal rat's back; 5 hours before challenge the hyperimmune antisera is similarly injected. At a third site 60 mcg. histamine dihydrochloride and 0.5 mcg. serotonin creatinine sulfate are injected i.d. just prior to antigen challenge as a check for antihistaminic, antiserotonin and unspecific types of blockage; the compounds of the instant invention or saline are then administered i.v. and immediately followed by the challenge of 5 mg. egg albumen and 2.5 mg. Evans' Blue dye in saline. In the case of oral administration Evans' Blue dye and egg albumin are given 5 minutes after administration of the drug. Thirty minutes later the animals are asphyxiated using chloroform and the skin of the back removed and reversed for observation. A score is assigned each injection site equal to the product of the diameter of the site in mm. and a grade of 0.1, 0.5, 1, 2, 3 or 4 proportional to intensity of dye coloration. The scores for a given injection site are summed for each group of five animals and compared to the saline treated controls. The difference is expressed as percent blockage due to the compound employed.
Compounds representative of those of the present invention are tested for antiallergy activity by the above-described procedure and the resulting activities are reported as the degree (%) of protection.

[3] = Table I amides, read-out: Oral Activity (% of Protection) in the PCA Test, IgE
[4] = Table I amides, read-out: Oral Activity (% of Protection) in the PCA Test, IgG
[5] = Table II acids, read-out: Oral Activity (% of Protection) of Acids in the PCA Test, IgE
[6] = Table II acids, read-out: Oral Activity (% of Protection) of Acids in the PCA Test, IgG

Compound	inhibition in vivo at 30 mg/kg [1, 3] [%]	inhibition in vivo at 30 mg/kg [2, 4] [%]	inhibition in vivo at 30 mg/kg [1, 5] [%]	inhibition in vivo at 30 mg/kg [2, 6] [%]	other results
O=C(Nc1nnn[nH]1)c1cnc2sc3c(n2c1=O)CCCCC3 [Formula I: (CH2)5, N-(5-Tetrazolyl)-1-oxo-1H cycloheptenothiazolo[3,2-a]pyrimidine-2-carboxamide]	25	38	–	–	–
CCc1sc2ncc(C(=O)O)c(=O)n2c1C [Formula II: R1=C2H5, R2=CH3, 1-Oxo-1H-6-ethyl-7-methylthiazolo[3,2-a]pyrimidine-2-carboxylic Acid]	–	–	42	24	–
CCC(C)c1csc2ncc(C(=O)O)c(=O)n12 (centres unmarked) [1-Oxo-1H-7-(2-butyl)thiazolo[3,2-a]pyrimidine-2-carboxylic Acid]	–	–	1	8	–
CC(C)c1csc2ncc(C(=O)O)c(=O)n12 [Formula II: R1=H, R2=CH(CH3)2, 1-Oxo-1H-7-isopropylthiazolo[3,2-a]pyrimidine-2-carboxylic Acid]	–	–	0	0	–
CCc1c(C)sc2ncc(C(=O)O)c(=O)n12 [Formula II: R1=CH3, R2=C2H5, 1-Oxo-1H-6-methyl-7-ethylthiazolo[3,2-a]pyrimidine-2-carboxylic Acid]	–	–	0	0	–
O=C(Nc1nnn[nH]1)c1cnc2sc3c(n2c1=O)CCC3 [Formula I: (CH2)3, N-(5-Tetrazolyl)-1-oxo-1H-cyclopentenothiazolo[3,2-a]pyrimidine-2-carboxamide]	–	–	–	–	inhibition in vivo at 1 mg/kg ([1]; 1 mg./kg., read-out: Oral Activity (% of Protection) in the PCA Test, IgE): 46%; inhibition in vivo at 1 mg/kg ([2]; 1 mg./kg., read-out: Oral Activity (% of Protection) in the PCA Test, IgG): 43%
CCc1c(C)sc2ncc(C(=O)Nc3nnn[nH]3)c(=O)n12 [Formula I: R1=CH3, R2=C2H5, N-(5-Tetrazolyl)-1-oxo-1H-6-methyl-7-ethylthiazolo[3,2-a]pyrimidine-2-carboxamide]	75	57	–	–	–
O=C(O)c1cnc2sccn2c1=O [Formula II: R1=H, R2=H]	–	–	18	7	–
CCc1csc2ncc(C(=O)O)c(=O)n12 [Formula II: R1=H, R2=C2H5, 1-Oxo-1H-7-ethylthiazolo[3,2-a]pyrimidine-2-carboxylic Acid]	–	–	13	21	–
CC(C)(C)c1csc2ncc(C(=O)Nc3nnn[nH]3)c(=O)n12 [Formula I: R1=H, R2=C(CH3)3, N-(5-Tetrazolyl)-1-oxo-1H-7-(2-methyl-2-propyl)thiazolo[3,2-a]pyrimidine-2-carboxamide]	37	20	–	–	–
CC1(C)CCc2c(sc3ncc(C(=O)O)c(=O)n23)C1 [Formula II: CH2C(CH3)2CH2CH2, 1-Oxo-1H-7,7-dimethylcyclohexenothiazolo[3,2-a]pyrimidine-2-carboxylic Acid]	–	–	13	6	–
CCc1csc2ncc(C(=O)Nc3nnn[nH]3)c(=O)n12 [Formula I: R1=H, R2=C2H5, N-(5-Tetrazolyl)-1-oxo-1H-7-ethylthiazolo[3,2-a]pyrimidine-2-carboxamide]	70	44	–	–	–
O=C(O)c1cnc2sc3c(n2c1=O)CCC3 [Formula II: (CH2)3, 1-Oxo-1H-cyclopentenothiazolo[3,2-a]pyrimidine-2-carboxylic Acid]	–	–	0	0	–
O=C(O)c1cnc2sc3c(n2c1=O)CCCCCC3 [Formula II: (CH2)6, 1-Oxo-1H-cyclooctenothiazolo[3,2-a]pyrimidine-2-carboxylic Acid]	–	–	68	45	inhibition in vivo at 10 mg/kg ([1]; 10 mg./kg., Table II acids, read-out: Oral Activity (% of Protection) of Acids in the PCA Test, IgE): 36%; inhibition in vivo at 10 mg/kg ([2]; 10 mg./kg., Table II acids, read-out: Oral Activity (% of Protection) of Acids in the PCA Test, IgG): 15%
O=C(O)c1cnc2sc3c(n2c1=O)CCC(c1ccccc1)C3 (centres unmarked) [Formula II: CH2CH(C5H6)CH2CH2, 1-oxo-1H-7-phenylcyclohexenothiazolo[3,2-a]pyrimidine-2-carboxylic Acid]	–	–	15	5	–
CCc1sc2ncc(C(=O)Nc3nnn[nH]3)c(=O)n2c1C [Formula I: R1=C2H5, R2=CH3, N-(5-Tetrazolyl)-1-oxo-1H-6-ethyl-7-methylthiazolo[3,2-a]pyrimidine-2-carboxamide]	29	28	–	–	–
CC(C)c1csc2ncc(C(=O)Nc3nnn[nH]3)c(=O)n12 [Formula I: R1=H, R2=CH(CH3)2, N-(5-Tetrazolyl)-1-oxo-1H-7-isopropylthiazolo[3,2-a]pyrimidine-2-carboxamide]	72	53	–	–	–
O=C(Nc1nnn[nH]1)c1cnc2sccn2c1=O [Formula I: R1=H, R2=H]	50	46	–	–	–
CC(C)(C)c1csc2ncc(C(=O)O)c(=O)n12 [Formula II: R1=H, R2=C(CH3)3, 1-Oxo-1H-7-(2-methyl-2-propyl)thiazolo[3,2-a]pyrimidine-2-carboxylic Acid]	–	–	10	6	–
CC1CCc2c(sc3ncc(C(=O)O)c(=O)n23)C1 (centres unmarked) [Formula II: CH2CH(CH3)CH2CH2, 1-Oxo-1H-7-methylcyclohexenothiazolo[3,2-a]pyrimidine-2-carboxylic Acid]	–	–	31	21	–
O=C(O)c1cnc2sc3c(n2c1=O)CCCCC3 [Formula II: (CH2)5, 1-Oxo-1H-cycloheptenothiazolo[3,2-a]pyrimidine-2-carboxylic Acid]	–	–	37	44	–
